Data published in patent publication US8414871B2, “Controlled releases of actives in skin” (priority 2002, dated 2013).

Legend:
[1] = Solute binding efficiency of nanospheres (HPLC); type: physicochemical
Method: The concentrations of the solutes were assayed by high-performance liquid chromatography (HPLC) using a Waters 2695 HPLC system equipped with UV/vis detector (Waters 2487, Dual 1 Absorbance Detector). Chromatographic separations were achieved using a RP-C18 column (Perkin-Elmer Brownlee Analytical C-18 column, 33 mm×4.6 mm) at 25° C. […] The mobile phase was delivered at a flow rate of 1 mL/min. […] Standard calibration samples were prepared at concentrations ranging from 1 to 50 μg/mL for all solutes. […] In addition, the specificity was determined by comparing the results obtained in the analysis of placebo supernatant, containing only nanospheres, with those obtained in the analysis of all standard solutions of the solutes and no interference from nanospheres was observed. To determine the solute binding efficiency, a predetermined aliquot of the purified nanosphere-solute complex suspension was withdrawn and freeze-dried, and the dry residue was accurately weighted before thoroughly dissolving in the extraction solvent. […] Solutes complexation by the nanospheres was characterized by the following ratio: [formula] Solutions of each solute in propylene glycol (PG) were prepared by stirring an excess of the molecule in PG at room temperature for 24 h. The samples were filtered through 0.22%μm PVDF syringe filters (Millipore, Bedford, Mass.), and the filtrates were used for all subsequent characterizations and experiments. For passive permeation experiments, the equal concentration (confirmed using RP-HPLC) of all solutes in both PG and nanospheres was achieved by subsequent dilution of either PG-solute solution with PG or NSP-solute formulation with PBS.

[2] = Dye penetration into skin layers, fluorescent microscopy of cryosectioned skin after passive permeation
Method: Human skin: The full thickness dermatomed (˜500 μm) human skin derived from the abdominal regions of female Caucasian cadavers were obtained from AlloSource (Englewood, Colo.) and stored at −80° C. Just before each experiment, the skin was allowed to thaw to room temperature and then used immediately for in vitro transport studies.
The receptor compartments were filled with 0.155 M phosphate buffered saline (pH 7.4, 5.1 mL), which was stirred at 600 rpm. The fluid in each receptor compartment was maintained at 37±0.5° C. by the use of a thermostatic water pump (Haake DC10, Karlsruhe, Germany) that circulated water through the jacket surrounding each main chamber. […] The skins were initially left in the Franz cells for 1 h in order to facilitate hydration of the membranes.
In all experiments, the donor compartment of the sampling port of each Franz cell was covered with a taught layer of Parafilm®, and the whole set up was roofed with aluminum foil to prevent the dye bleaching. Each permeation experiment was conducted in sextuplicate or quadruplicate (in case of time-dependency experiments).
At the end of the permeation experiment, the excess formulation was removed from the skin surface, skin sections were detached from the diffusion cells, washed three times with PBS, and dried gently with delicate task wipers (Kimwipes). The skins were frozen at −20° C., and 0.2×0.5 cm piece from the treated area was cut out and imbedded in optimal cutting temperature compound (OCT). A cryostat (Leica Cryostat CM 3050S, Wetzlar, Germany) was used to prepare the cross-section of full skin perpendicular to the skin surface. Nine to twelve vertical sections with a thickness of 20 μm each were obtained and stored at −4° C. till analyzed microscopically.
Fluorescent microscopy. Skin sections were subjected to both fluorescent and phase-contrast microscopy using Olympus CK40 microscope equipped with a UV source and filters for fluorescent measurement. Image capture and analysis were carried out using Olympus Microsuite™ B35V program. […] Images were recorded setting the camera integration time of 500 ms. The same parameters were used for imaging all samples and no corrections for the background fluorescence were made.
Quantitative analysis of dye penetration into skin was obtained by calculating pixel intensities from fluorescence measurements of skin sections. Image analysis was carried out for the epidermis (EP; consisting of stratum corneum and the viable epidermis), superficial dermis (SD) and lower dermis (LD) as schematically represented in FIG. 5. The superficial dermis is defined as the region measuring around 100 μm below the epidermis and the lower dermis is the remaining portion of the dermis below the superficial dermis.
H&E staining of the skin section (FIG. 5) was used to define the above layers for which quantitative analysis of dyes penetration was carried out.

| Compound | final concentration of solutes in nanospheres solutions [1] [µg/mL] | change in dye penetration from EP to LD [2] | decrease of dye penetration from EP into the dermis [2] | decrease of fluorescence intensities from EP to LD ([2]; 24 hrs, NSP-dye formulations) [fold] | PE (penetration effect), fluorescence in epidermis ([2]; female, human, 24 h, pH 7.4) [ABU] |
| --- | --- | --- | --- | --- | --- |
| CCCCCCCCCCCC(=O)Nc1ccc2c(c1)C(=O)OC21c2ccc(O)cc2Oc2cc(O)ccc21 [DAF, 5-Dodecanoylaminofluorescein] | 180 | increase | about two and a half fold |  |  |
| CCN(CC)c1ccc2nc3c4ccccc4c(=O)cc-3oc2c1 [NR, Nile Red] | 200 |  | about five fold | 2.5 | 48.6±1.3 |
| COc1cc(/C=C/C(=O)CC(=O)/C=C/c2ccc(O)c(OC)c2)ccc1O [curcumin] | 190 |  |  |  |  |
